# Data as given in US20200016159A1, “N3-CYCLICALLY SUBSTITUTED THIENOURACILS AND USE THEREOF” (Bayer Aktiengesellschaft, priority 2016, published 2020).
# Biological target: T1, human adenosine A2b receptor (Homo sapiens, UniProt P29275)
# T1 sequence (P29275 1-332): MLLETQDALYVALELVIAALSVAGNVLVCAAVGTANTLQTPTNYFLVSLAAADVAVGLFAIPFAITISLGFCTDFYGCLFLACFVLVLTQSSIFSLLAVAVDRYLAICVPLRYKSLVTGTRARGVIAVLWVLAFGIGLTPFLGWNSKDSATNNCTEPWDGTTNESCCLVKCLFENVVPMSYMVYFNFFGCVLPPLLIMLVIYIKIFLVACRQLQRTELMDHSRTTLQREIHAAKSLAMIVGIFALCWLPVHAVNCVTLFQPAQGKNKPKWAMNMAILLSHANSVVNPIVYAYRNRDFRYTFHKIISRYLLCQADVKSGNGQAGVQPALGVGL
# Assay: Cellular in vitro reporter gene test for A2b receptor activity (antagonism of NECA)
# Format: cell-based
# Parameters: expressed in transfected cells; host or cells: CHO-K1 (Chinese hamster ovary) with CRE-luciferase reporter
# Details: recombinant CHO-K1 cells, CRE-luciferase reporter, co-incubation with EC50 concentration of NECA, 3 hours
# Outline: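 CHO-K1 cells expressing recombinant human A2b receptor plus a CRE-driven firefly luciferase reporter. Compounds co-incubated with NECA at its same-day EC50 concentration; luminescence read 3 hours after NECA addition. IC50 values, sometimes means of several determinations rounded to two significant figures.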
row,Compound,IC50
1,"Cc1c(CN2CCNC2=O)sc2c1c(=O)n(C1(C)CC1)c(=O)n2CC1CC1(F)F (racemic) [Example 63, 1-[(2,2-Difluorocyclopropyl)methyl]-5-methyl-3-(1-methylcyclopropyl)-6-[(2-oxoimidazolidin-1-yl)methyl]thieno[2,3-d]pyrimidine-2,4(1H,3H)-dione]",0.012 µM
2,"CO[C@H]1C[C@@H](n2c(=O)c3c(C)c(CN4CCNC4=NC#N)sc3n(CCC(F)(F)F)c2=O)C1 [Example 155, [1-{[3-(cis-3-Methoxycyclobutyl)-5-methyl-2,4-dioxo-1-(3,3,3-trifluoropropyl)-1,2,3,4-tetrahydrothieno[2,3-d]pyrimidin-6-yl]methyl}imidazolidin-2-ylidene]cyanamide]",0.056 µM
3,"Cc1c(CN2CCNC2=O)sc2c1c(=O)n(C1CC1C)c(=O)n2CCSC(F)(F)F (single isomer, unassigned) [Example 281, 5-Methyl-3-(2-methylcyclopropyl)-6-[(2-oxoimidazolidin-1-yl)methyl]-1-{2-[(trifluoromethyl)sulfanyl]ethyl}thieno[2,3-d]pyrimidine-2,4(1H,3H)-dione]",0.0021 µM
4,"Cc1c(CN2CCNC2=O)sc2c1c(=O)n(C1CC1(C)C)c(=O)n2CCC(F)(F)F (single isomer, unassigned) [Example 101, 3-(2,2-Dimethylcyclopropyl)-5-methyl-6-[(2-oxoimidazolidin-1-yl)methyl]-1-(3,3,3-trifluoropropyl)thieno[2,3-d]pyrimidine-2,4(1H,3H)-dione]",0.032 µM
5,"CCC1(n2c(=O)c3c(C)c(CN4CCNC4=O)sc3n(CCC(F)(F)F)c2=O)CC1 [Example 106, 3-(1-Ethylcyclopropyl)-5-methyl-6-[(2-oxoimidazolidin-1-yl)methyl]-1-(3,3,3-trifluoropropyl)thieno[2,3-d]pyrimidine-2,4(1H,3H)-dione]",0.041 µM
6,"Cc1c(CN2CCNC2=O)sc2c1c(=O)n(C1CC1C)c(=O)n2CCC(F)(F)F (single isomer, unassigned) [Example 241, 5-Methyl-3-(2-methylcyclopropyl)-6-[(2-oxoimidazolidin-1-yl)methyl]-1-(3,3,3-trifluoropropyl)thieno[2,3-d]pyrimidine-2,4(1H,3H)-dione]",0.0071 µM
7,"COCCn1c(=O)n(C2CC2OC)c(=O)c2c(C)c(Cn3nc[nH]c3=O)sc21 (single isomer, unassigned) [Example 311, 3-(2-Methoxycyclopropyl)-1-(2-methoxyethyl)-5-methyl-6-[(5-oxo-4,5-dihydro-H-1,2,4-triazol-1-yl)methyl]thieno[2,3-d]pyrimidine-2,4(1H,3H)-dione]",0.044 µM
8,"Cc1c(CN2CCNC2=O)sc2c1c(=O)n(C1CC1C)c(=O)n2C (single isomer, unassigned) [Example 222, 1,5-Dimethyl-3-(2-methylcyclopropyl)-6-[(2-oxoimidazolidin-1-yl)methyl]thieno[2,3-d]pyrimidine-2,4(1H,3H)-dione]",0.0016 µM
9,"COCCn1c(=O)n([C@H]2C[C@H](OC)C2)c(=O)c2c(C)c(CN3CCNC3=NC#N)sc21 [Example 150, [1-{[3-(trans-3-Methoxycyclobutyl)-1-(2-methoxyethyl)-5-methyl-2,4-dioxo-1,2,3,4-tetrahydrothieno[2,3-d]pyrimidin-6-yl]methyl}imidazolidin-2-ylidene]cyanamide]",0.12 µM
10,"COCCn1c(=O)n(C2CC2OC)c(=O)c2c(C)c(Cn3nc[nH]c3=O)sc21 (single isomer, unassigned) [Example 310, 3-(2-Methoxycyclopropyl)-1-(2-methoxyethyl)-5-methyl-6-[(5-oxo-4,5-dihydro-1H-1,2,4-triazol-1-yl)methyl]thieno[2,3-d]pyrimidine-2,4(1H,3H)-dione]",3.9 µM
11,"COCCn1c(=O)n(C2(C(F)(F)F)CC2)c(=O)c2c(C)c(Cn3nc[nH]c3=O)sc21 [Example 89, 1-(2-Methoxyethyl)-5-methyl-6-[(5-oxo-4,5-dihydro-1H-1,2,4-triazol-1-yl)methyl]-3-[1-(trifluoromethyl)cyclopropyl]thieno[2,3-d]pyrimidine-2,4(1H,3H)-dione]",1.2 µM
12,"Cc1c(Cn2nc[nH]c2=O)sc2c1c(=O)n(C1(C)CC1)c(=O)n2CCOC(C)C [Example 80, 1-(2-Isopropoxyethyl)-5-methyl-3-(1-methylcyclopropyl)-6-[(5-oxo-4,5-dihydro-H-1,2,4-triazol-1-yl)methyl]thieno[2,3-d]pyrimidine-2,4(1H,3H)-dione]",0.74 µM
13,"Cc1c(Cn2cc[nH]c2=O)sc2c1c(=O)n(C1CC1)c(=O)n2CC1CCCO1 (single isomer, unassigned) [Example 48, 3-Cyclopropyl-5-methyl-6-[(2-oxo-2,3-dihydro-H-imidazol-1-yl)methyl]-1-(tetrahydrofuran-2-ylmethyl)thieno[2,3-d]pyrimidine-2,4(1H,3H)-dione]",0.056 µM
14,"Cc1c(Cn2nc[nH]c2=O)sc2c1c(=O)n(C1CC1)c(=O)n2CCOC(C)C [Example 34, 3-Cyclopropyl-1-(2-isopropoxyethyl)-5-methyl-6-[(5-oxo-4,5-dihydro-H-1,2,4-triazol-1-yl)methyl]thieno[2,3-d]pyrimidine-2,4(1H,3H)-dione]",0.5 µM
15,"Cc1c(Cn2cc[nH]c2=O)sc2c1c(=O)n(C1CC1C)c(=O)n2CCOC(F)(F)F (racemic) [Example 270, 5-Methyl-3-(2-methylcyclopropyl)-6-[(2-oxo-2,3-dihydro-1H-imidazol-1-yl)methyl]-1-[2-(trifluoromethoxy)ethyl]thieno[2,3-d]pyrimidine-2,4(1H,3H)-dione]",0.0015 µM
16,"CO[C@H]1C[C@@H](n2c(=O)c3c(C)c(CN4CCNC4=O)sc3n(CCC(F)(F)F)c2=O)C1 [Example 154, 3-(cis-3-Methoxycyclobutyl)-5-methyl-6-[(2-oxoimidazolidin-1-yl)methyl]-1-(3,3,3-trifluoropropyl)thieno[2,3-d]pyrimidine-2,4(1H,3H)-dione]",0.023 µM
17,"COCCn1c(=O)n(C2CC(C)(C)C2)c(=O)c2c(C)c(CN3CCNC3=O)sc21 [Example 169, 3-(3,3-Dimethylcyclobutyl)-1-(2-methoxyethyl)-5-methyl-6-[(2-oxoimidazolidin-1-yl)methyl]thieno[2,3-d]pyrimidine-2,4(1H,3H)-dione]",0.014 µM
18,"Cc1c(CN2CCNC2=O)sc2c1c(=O)n(C1CC3(CCC3)C1)c(=O)n2CCC(F)(F)F [Example 174, 5-Methyl-6-[(2-oxoimidazolidin-1-yl)methyl]-3-(spiro[3.3]hept-2-yl)-1-(3,3,3-trifluoropropyl)thieno[2,3-d]pyrimidine-2,4(1H,3H)-dione]",0.0028 µM
19,"Cc1c(CN2CCNC2=O)sc2c1c(=O)n(C1CC(F)(F)C1)c(=O)n2CCC(F)(F)F [Example 120, 3-(3,3-Difluorocyclobutyl)-5-methyl-6-[(2-oxoimidazolidin-1-yl)methyl]-1-(3,3,3-trifluoropropyl)thieno[2,3-d]pyrimidine-2,4(1H,3H)-dione]",0.0032 µM
20,"COC(=O)N=C1NCCN1Cc1sc2c(c1C)c(=O)n(C1CC(F)(F)C1)c(=O)n2CCC(F)(F)F [Example 122, Methyl [1-{[3-(3,3-difluorocyclobutyl)-5-methyl-2,4-dioxo-1-(3,3,3-trifluoropropyl)-1,2,3,4-tetrahydrothieno[2,3-d]pyrimidin-6-yl]methyl}imidazolidin-2-ylidene]carbamate]",0.0042 µM
21,"Cc1c(Cn2nc[nH]c2=O)sc2c1c(=O)n(C1CC1)c(=O)n2CC1CCC1(F)F (single isomer, unassigned; enantiomer 2) [Example 203, 3-Cyclopropyl-1-[(2,2-difluorocyclobutyl)methyl]-5-methyl-6-[(5-oxo-4,5-dihydro-1H-1,2,4-triazol-1-yl)methyl]thieno[2,3-d]pyrimidine-2,4(1H,3H)-dione (enantiomer 2)]",0.16 µM
22,"COCCn1c(=O)n(C2CC2)c(=O)c2c(C)c(CN3CCNC3=NC#N)sc21 [Example 25, [1-{[3-Cyclopropyl-1-(2-methoxyethyl)-5-methyl-2,4-dioxo-1,2,3,4-tetrahydrothieno[2,3-d]pyrimidin-6-yl]methyl}imidazolidin-2-ylidene]cyanamide]",0.012 µM
23,"Cc1c(Cn2cc[nH]c2=O)sc2c1c(=O)n(C1(C)CC1)c(=O)n2CCC(F)(F)F [Example 214, 5-Methyl-3-(1-methylcyclopropyl)-6-[(2-oxo-2,3-dihydro-1H-imidazol-1-yl)methyl]-1-(3,3,3-trifluoropropyl)thieno[2,3-d]pyrimidine-2,4(1H,3H)-dione]",0.01 µM
24,"COCCn1c(=O)n(C2CC(C)(C)C2)c(=O)c2c(C)c(CN3CCNC3=NC(=O)OC)sc21 [Example 171, Methyl [1-{[3-(3,3-dimethylcyclobutyl)-1-(2-methoxyethyl)-5-methyl-2,4-dioxo-1,2,3,4-tetrahydrothieno[2,3-d]pyrimidin-6-yl]methyl}imidazolidin-2-ylidene]carbamate]",0.017 µM
25,"COCCn1c(=O)n([C@H]2C[C@@H](OC)C2)c(=O)c2c(C)c(CN3CCNC3=O)sc21 [Example 159, 3-(cis-3-Methoxycyclobutyl)-1-(2-methoxyethyl)-5-methyl-6-[(2-oxoimidazolidin-1-yl)methyl]thieno[2,3-d]pyrimidine-2,4(1H,3H)-dione]",0.2 µM
26,"COCCn1c(=O)n(C2CCC2)c(=O)c2c(C)c(Cn3nc[nH]c3=O)sc21 [Example 119, 3-Cyclobutyl-1-(2-methoxyethyl)-5-methyl-6-[(5-oxo-4,5-dihydro-H-1,2,4-triazol-1-yl)methyl]thieno[2,3-d]pyrimidine-2,4(1H,3H)-dione]",0.012 µM
